From US20180292376A1, “DIFFUSION CELL TESTING METHODS CONTAINING BIPHASIC RECEPTOR FLUIDS” (BUFFERAD Illinois Inc. d/b/a Zyleris PharmaTech, Inc., priority 2017, published 2018)
Values joined by “and” are separate entries in the source; they are usually repeats but may differ in a detail not shown here. Identical values can stand only once.

Assay: In vitro release testing (IVRT), static vertical diffusion cell, synthetic membrane, UV-VIS analysis
Assay type: physicochemical
Settings: for amount of xylene cyanol released into the water phase / release of Xylene Cyanol into the receptor fluid: ointment
Procedure: In Vitro Release Testing Method.
Release of pharmaceutically active compounds from semi-solid dosage forms was evaluated in an in vitro model of static vertical diffusion cell using a synthetic membrane model. […] The samples were analyzed using a UV-VIS spectrometer. […]
Test time points: 0, 2, 4, 6, 8, and 10 hours. Each test was conducted in four replicates (N=4). Square root of test time points: 0, 1.41, 2.00, 2.45, 2.83, and 3.16.
Membrane: Polypropylene (pore size: 0.45 micron).
Static vertical diffusion cell parameters: Area of the membrane diffusion area: 0.95 square centimeters.
Dosing level: infinite dose at about 3.0 milliliter of the semi-solid dosage form.
Static vertical diffusion cell consists of a donor and receptor compartment separated by a synthetic membrane. The dosing compartment was for the dosed semi-solid dosage form. […] Before dosing, the diffusion cell was pre-incubated at 32° C. for about 20 to 45 minutes. The t=0 samples were taken after the incubation period prior to dosing.
During the experiment, the receptor fluid was in intimate contact with the membrane through a mixing mechanism, such as, e.g., magnetic stirring bar, or orbit shaker, and maintained at 32° C. using a heating mechanism, such as, e.g., dry heat block, or circulating water bath. At each time point, entire content of the receptor fluid was collected and replaced with a fresh batch pre-incubated at 32° C.
An ointment dosage form was prepared as an example of the semi-solid dosage form. Petrolatum was heated to about 50 to 70° C. while mixing. Xylene Cyanol was added to the heated petrolatum while heating and mixing. The mixture was mixed until uniform. Then, the mixture was slowly cooled to room temperature while mixing to yield the ointment formulation.

- amount of xylene cyanol released (0.5% Xylene Cyanol in Petrolatum, infinite dose, biphasic receptor fluid: 1-Octanol:H2O 1:1 v:v, square root of time (hr) 0.00 (0 h, prior to dosing)): 0.0000 mcg/cm2
- amount of xylene cyanol released (0.5% Xylene Cyanol in Petrolatum, infinite dose, biphasic receptor fluid: 1-Octanol:PBS Buffer pH 7.4 1:1 v:v, square root of time 0.00 (0 h, prior to dosing)): 0.0000 mcg/cm2
- Slope - Average (0.5% Xylene Cyanol in Petrolatum, infinite dose, receptor fluid: 1-Octanol:H2O 1:1 v:v, N=4 runs): 2.2026 mcg/cm2/h^0.5
- Slope - Average (0.5% Xylene Cyanol in Petrolatum, infinite dose, receptor fluid: 1-Octanol:PBS Buffer pH 7.4 1:1 v:v): 1.0412 mcg/cm2/h^0.5
- amount of xylene cyanol released (0.5% Xylene Cyanol in Petrolatum, infinite dose, receptor fluid: 1-Octanol, square root of time (hr) 0.00 (0 h, prior to dosing)): BDL
- amount of xylene cyanol released (0.5% Xylene Cyanol in Petrolatum, infinite dose, receptor fluid: 1-Octanol, square root of time (hr) 1.41 (2 h)): BDL
- amount of xylene cyanol released (0.5% Xylene Cyanol in Petrolatum, infinite dose, receptor fluid: 1-Octanol, square root of time (hr) 2.00 (4 h)): BDL
- amount of xylene cyanol released (0.5% Xylene Cyanol in Petrolatum, infinite dose, receptor fluid: 1-Octanol, square root of time (hr) 2.45 (6 h)): BDL
- amount of xylene cyanol released (0.5% Xylene Cyanol in Petrolatum, infinite dose, receptor fluid: 1-Octanol, square root of time (hr) 2.83 (8 h)): BDL
- amount of xylene cyanol released (0.5% Xylene Cyanol in Petrolatum, infinite dose, receptor fluid: 1-Octanol, square root of time (hr) 3.16 (10 h)): BDL
- amount of xylene cyanol released (0.5% Xylene Cyanol in Petrolatum, infinite dose, receptor fluid: 1-octanol:ethanol 50:50 v:v, square root of time (hr) 0.00 (0 h, prior to dosing)): BDL
- amount of xylene cyanol released (0.5% Xylene Cyanol in Petrolatum, infinite dose, receptor fluid: 1-octanol:ethanol 50:50 v:v, square root of time (hr) 1.41 (2 h)): BDL
- amount of xylene cyanol released (0.5% Xylene Cyanol in Petrolatum, infinite dose, receptor fluid: 1-octanol:ethanol 50:50 v:v, square root of time (hr) 2.00 (4 h)): BDL
- amount of xylene cyanol released (0.5% Xylene Cyanol in Petrolatum, infinite dose, receptor fluid: 1-octanol:ethanol 50:50 v:v, square root of time (hr) 2.45 (6 h)): BDL
- amount of xylene cyanol released (0.5% Xylene Cyanol in Petrolatum, infinite dose, receptor fluid: 1-octanol:ethanol 50:50 v:v, square root of time (hr) 2.83 (8 h)): BDL
- amount of xylene cyanol released (0.5% Xylene Cyanol in Petrolatum, infinite dose, receptor fluid: 1-octanol:ethanol 50:50 v:v, square root of time (hr) 3.16 (10 h)): BDL
- amount of xylene cyanol released (0.5% Xylene Cyanol in Petrolatum, infinite dose, receptor fluid: Isopropyl alcohol:water 50:50 v:v, square root of time (hr) 0.00 (0 h, prior to dosing)): BDL
- amount of xylene cyanol released (0.5% Xylene Cyanol in Petrolatum, infinite dose, receptor fluid: Isopropyl alcohol:water 50:50 v:v, square root of time (hr) 1.41 (2 h)): BDL
- amount of xylene cyanol released (0.5% Xylene Cyanol in Petrolatum, infinite dose, receptor fluid: Isopropyl alcohol:water 50:50 v:v, square root of time (hr) 2.00 (4 h)): BDL
- amount of xylene cyanol released (0.5% Xylene Cyanol in Petrolatum, infinite dose, receptor fluid: Isopropyl alcohol:water 50:50 v:v, square root of time (hr) 2.45 (6 h)): BDL
- amount of xylene cyanol released (0.5% Xylene Cyanol in Petrolatum, infinite dose, receptor fluid: Isopropyl alcohol:water 50:50 v:v, square root of time (hr) 2.83 (8 h)): BDL
- amount of xylene cyanol released (0.5% Xylene Cyanol in Petrolatum, infinite dose, receptor fluid: Isopropyl alcohol:water 50:50 v:v, square root of time (hr) 3.16 (10 h)): BDL
- amount of xylene cyanol released (0.5% Xylene Cyanol in Petrolatum, infinite dose, receptor fluid: dimethyl sulfoxide:ethanol 50:50 v:v, square root of time (hr) 0.00 (0 h, prior to dosing)): BDL
- amount of xylene cyanol released (0.5% Xylene Cyanol in Petrolatum, infinite dose, receptor fluid: dimethyl sulfoxide:ethanol 50:50 v:v, square root of time (hr) 1.41 (2 h)): BDL
- amount of xylene cyanol released (0.5% Xylene Cyanol in Petrolatum, infinite dose, receptor fluid: dimethyl sulfoxide:ethanol 50:50 v:v, square root of time (hr) 2.00 (4 h)): BDL
- amount of xylene cyanol released (0.5% Xylene Cyanol in Petrolatum, infinite dose, receptor fluid: dimethyl sulfoxide:ethanol 50:50 v:v, square root of time (hr) 2.45 (6 h)): BDL
- amount of xylene cyanol released (0.5% Xylene Cyanol in Petrolatum, infinite dose, receptor fluid: dimethyl sulfoxide:ethanol 50:50 v:v, square root of time (hr) 2.83 (8 h)): BDL
- amount of xylene cyanol released (0.5% Xylene Cyanol in Petrolatum, infinite dose, receptor fluid: dimethyl sulfoxide:ethanol 50:50 v:v, square root of time (hr) 3.16 (10 h)): BDL
- amount of xylene cyanol released (0.5% Xylene Cyanol in Petrolatum, infinite dose, receptor fluid: dimethyl sulfoxide:isopropyl alcohol:water 30:30:40 v:v:v, square root of time (hr) 0.00 (0 h, prior to dosing)): BDL
- amount of xylene cyanol released (0.5% Xylene Cyanol in Petrolatum, infinite dose, receptor fluid: dimethyl sulfoxide:isopropyl alcohol:water 30:30:40 v:v:v, square root of time (hr) 1.41 (2 h)): BDL
- amount of xylene cyanol released (0.5% Xylene Cyanol in Petrolatum, infinite dose, receptor fluid: dimethyl sulfoxide:isopropyl alcohol:water 30:30:40 v:v:v, square root of time (hr) 2.00 (4 h)): BDL
- amount of xylene cyanol released (0.5% Xylene Cyanol in Petrolatum, infinite dose, receptor fluid: dimethyl sulfoxide:isopropyl alcohol:water 30:30:40 v:v:v, square root of time (hr) 2.45 (6 h)): BDL
- amount of xylene cyanol released (0.5% Xylene Cyanol in Petrolatum, infinite dose, receptor fluid: dimethyl sulfoxide:isopropyl alcohol:water 30:30:40 v:v:v, square root of time (hr) 2.83 (8 h)): BDL
- amount of xylene cyanol released (0.5% Xylene Cyanol in Petrolatum, infinite dose, receptor fluid: dimethyl sulfoxide:isopropyl alcohol:water 30:30:40 v:v:v, square root of time (hr) 3.16 (10 h)): BDL
- amount of xylene cyanol released (0.5% Xylene Cyanol in Petrolatum, infinite dose, receptor fluid: isopropyl alcohol, square root of time (hr) 0.00 (0 h, prior to dosing)): BDL
- amount of xylene cyanol released (0.5% Xylene Cyanol in Petrolatum, infinite dose, receptor fluid: isopropyl alcohol, square root of time (hr) 1.41 (2 h)): BDL
- amount of xylene cyanol released (0.5% Xylene Cyanol in Petrolatum, infinite dose, receptor fluid: isopropyl alcohol, square root of time (hr) 2.00 (4 h)): BDL
- amount of xylene cyanol released (0.5% Xylene Cyanol in Petrolatum, infinite dose, receptor fluid: isopropyl alcohol, square root of time (hr) 2.45 (6 h)): BDL
- amount of xylene cyanol released (0.5% Xylene Cyanol in Petrolatum, infinite dose, receptor fluid: isopropyl alcohol, square root of time (hr) 2.83 (8 h)): BDL
- amount of xylene cyanol released (0.5% Xylene Cyanol in Petrolatum, infinite dose, receptor fluid: isopropyl alcohol, square root of time (hr) 3.16 (10 h)): BDL
- Slope (release rate) (0.5% Xylene Cyanol in Petrolatum, infinite dose, receptor fluid: water, amount released vs square root of time): BDL
- amount of xylene cyanol released (0.5% Xylene Cyanol in Petrolatum, infinite dose, receptor fluid: water, square root of time (hr) 0.00 (0 h, prior to dosing)): BDL
- amount of xylene cyanol released (0.5% Xylene Cyanol in Petrolatum, infinite dose, receptor fluid: water, square root of time (hr) 1.41 (2 h)): BDL
- amount of xylene cyanol released (0.5% Xylene Cyanol in Petrolatum, infinite dose, receptor fluid: water, square root of time (hr) 2.00 (4 h)): BDL
- amount of xylene cyanol released (0.5% Xylene Cyanol in Petrolatum, infinite dose, receptor fluid: water, square root of time (hr) 2.45 (6 h)): BDL
- amount of xylene cyanol released (0.5% Xylene Cyanol in Petrolatum, infinite dose, receptor fluid: water, square root of time (hr) 2.83 (8 h)): BDL
- amount of xylene cyanol released (0.5% Xylene Cyanol in Petrolatum, infinite dose, receptor fluid: water, square root of time (hr) 3.16 (10 h)): BDL
- amount of xylene cyanol released into the water phase (biphasic receptor fluid 1-butanol:1-octanol:water 20:30:50 v:v:v): high amount
- amount of xylene cyanol released into the water phase (biphasic receptor fluid 1-hexanol:1-octanol:water 25:25:50 v:v:v): high amount
- amount of xylene cyanol released into the water phase (biphasic receptor fluid 1-hexanol:water 50:50 v:v): high amount
- amount of xylene cyanol released into the water phase (biphasic receptor fluid 1-octanol:PEG 400:water 40:20:40 v:v:v): higher amount
- amount of xylene cyanol released into the water phase (biphasic receptor fluid 1-octanol:ethanol:water 40:20:40 v:v:v): higher amount
- amount of xylene cyanol released into the water phase (biphasic receptor fluid 1-octanol:glycerin:water 40:20:40 v:v:v): higher amount
- amount of xylene cyanol released into the water phase (biphasic receptor fluid 1-octanol:isopropanol:water 40:20:40 v:v:v): higher amount
- amount of xylene cyanol released into the water phase (biphasic receptor fluid 1-octanol:propylene glycol:water 40:20:40 v:v:v): higher amount
- release of Xylene Cyanol into the receptor fluid (one-phase receptor fluid: 1-octanol): no release
- release of Xylene Cyanol into the receptor fluid (one-phase receptor fluid: 1-octanol:ethanol 50:50 v:v): no release
- release of Xylene Cyanol into the receptor fluid (one-phase receptor fluid: dimethyl sulfoxide:ethanol 50:50 v:v): no release
- release of Xylene Cyanol into the receptor fluid (one-phase receptor fluid: dimethyl sulfoxide:isopropyl alcohol:water 30:30:40 v:v:v): no release
- release of Xylene Cyanol into the receptor fluid (one-phase receptor fluid: isopropyl alcohol): no release
- release of Xylene Cyanol into the receptor fluid (one-phase receptor fluid: isopropyl alcohol:water 50 to 50 in volume): no release
- release of Xylene Cyanol into the receptor fluid (one-phase receptor fluid: water): no release
Structure (SMILES): CCN=C1C=CC(=C(c2ccc(NCC)c(C)c2)c2ccc(S(=O)(=O)[O-])cc2S(=O)(=O)O)C=C1C.[Na+] [Xylene Cyanol]
- amount of xylene cyanol released (0.5% Xylene Cyanol in Petrolatum, infinite dose, biphasic receptor fluid: 1-Octanol:H2O 1:1 v:v, square root of time (hr) 2.00 (4 h)): 1.2143 mcg/cm2 and 1.9575 mcg/cm2 and 1.4206 mcg/cm2 and 1.4438 mcg/cm2
- amount of xylene cyanol released (0.5% Xylene Cyanol in Petrolatum, infinite dose, biphasic receptor fluid: 1-Octanol:H2O 1:1 v:v, square root of time (hr) 2.45 (6 h)): 2.2025 mcg/cm2 and 3.0973 mcg/cm2 and 2.5204 mcg/cm2 and 2.5436 mcg/cm2
- amount of xylene cyanol released (0.5% Xylene Cyanol in Petrolatum, infinite dose, biphasic receptor fluid: 1-Octanol:H2O 1:1 v:v, square root of time (hr) 2.83 (8 h)): 3.1044 mcg/cm2 and 4.1192 mcg/cm2 and 3.3865 mcg/cm2 and 3.7213 mcg/cm2
- amount of xylene cyanol released (0.5% Xylene Cyanol in Petrolatum, infinite dose, biphasic receptor fluid: 1-Octanol:H2O 1:1 v:v, square root of time (hr) 3.16 (10 h)): 3.8674 mcg/cm2 and 4.8589 mcg/cm2 and 4.2884 mcg/cm2 and 4.5853 mcg/cm2
- amount of xylene cyanol released (0.5% Xylene Cyanol in Petrolatum, infinite dose, biphasic receptor fluid: 1-Octanol:PBS Buffer pH 7.4 1:1 v:v, square root of time 2.00 (4 h)): 0.3389 mcg/cm2 and 0.4105 mcg/cm2 and 0.5179 mcg/cm2 and 0.4295 mcg/cm2
- amount of xylene cyanol released (0.5% Xylene Cyanol in Petrolatum, infinite dose, biphasic receptor fluid: 1-Octanol:PBS Buffer pH 7.4 1:1 v:v, square root of time 2.45 (6 h)): 1.2295 mcg/cm2 and 1.3179 mcg/cm2 and 0.8863 mcg/cm2 and 0.9032 mcg/cm2
- amount of xylene cyanol released (0.5% Xylene Cyanol in Petrolatum, infinite dose, biphasic receptor fluid: 1-Octanol:PBS Buffer pH 7.4 1:1 v:v, square root of time 2.83 (8 h)): 1.3579 mcg/cm2 and 1.8147 mcg/cm2 and 1.4400 mcg/cm2 and 1.5937 mcg/cm2
- amount of xylene cyanol released (0.5% Xylene Cyanol in Petrolatum, infinite dose, biphasic receptor fluid: 1-Octanol:PBS Buffer pH 7.4 1:1 v:v, square root of time 3.16 (10 h)): 1.8884 mcg/cm2 and 2.4316 mcg/cm2 and 1.7305 mcg/cm2 and 1.9768 mcg/cm2
